{"source": "patent US10253341B2", "about": "“Mutant sugar isomerase with improved activity, derived from E. coli, and production of L-gulose using the same” (priority 2014, dated 2019)", "format_in_all_cases": "biochemical", "key": {"[1]": {"molecular_target": "Escherichia coli O157:H7 sugar isomerase (EcSI, SEQ ID NO: 3) variant I112C (Escherichia coli, UniProt A0A6M7H989, I112C)"}, "[2]": {"molecular_target": "Escherichia coli O157:H7 sugar isomerase (EcSI, SEQ ID NO: 3) variant I112C T56M M92L (Escherichia coli, UniProt A0A6M7H989, I112C/M92L/T56M)"}, "[3]": {"molecular_target": "Escherichia coli O157:H7 sugar isomerase (EcSI, SEQ ID NO: 3) variant T56M (Escherichia coli, UniProt A0A6M7H989, T56M)"}, "[4]": {"molecular_target": "Escherichia coli O157:H7 sugar isomerase (EcSI, SEQ ID NO: 3) variant M92L (Escherichia coli, UniProt A0A6M7H989, M92L)"}, "[5]": {"molecular_target": "Escherichia coli O157:H7 sugar isomerase (EcSI, SEQ ID NO: 3) variant I112C T56M (Escherichia coli, UniProt A0A6M7H989, I112C/T56M)"}, "[6]": {"molecular_target": "Escherichia coli O157:H7 sugar isomerase (EcSI), wild type, SEQ ID NO: 3 (Escherichia coli, UniProt A0A6M7H989)"}}, "data": [{"smiles": "OCC1(O)OC[C@H](O)[C@@H](O)[C@@H]1O", "note": "(stereo partly drawn) [L-sorbose]", "values": [{"measurement": "kcat", "setting": "[1]", "result": 88, "unit": "S^−1"}, {"measurement": "kcat/Km", "setting": "[1]", "result": 0.92, "unit": "mM^−1S^−1"}, {"measurement": "kcat", "setting": "[2]", "result": 245, "unit": "S^−1"}, {"measurement": "kcat/Km", "setting": "[2]", "result": 2.28, "unit": "mM^−1S^−1"}, {"measurement": "kcat", "setting": "[3]", "result": 101, "unit": "S^−1"}, {"measurement": "kcat/Km", "setting": "[3]", "result": 0.85, "unit": "mM^−1S^−1"}, {"measurement": "kcat", "setting": "[4]", "result": 105, "unit": "S^−1"}, {"measurement": "kcat/Km", "setting": "[4]", "result": 0.70, "unit": "mM^−1S^−1"}, {"measurement": "kcat", "setting": "[5]", "result": 144, "unit": "S^−1"}, {"measurement": "kcat/Km", "setting": "[5]", "result": 1.53, "unit": "mM^−1S^−1"}, {"measurement": "kcat", "setting": "[6]", "result": 84, "unit": "S^−1"}, {"measurement": "kcat/Km", "setting": "[6]", "result": 0.63, "unit": "mM^−1S^−1"}]}]}
